In patent EP4745134A1 (Jiangsu Yahong Meditech Co., Ltd., priority 2023, dated 2025):
pIC50: −log10 of the molar value. Like-named read-outs stand apart in the source and are kept apart here.

Columns and labels:
PRMT5-MTA = PRMT5-MTA (Homo sapiens, UniProt O14744); test: Enzymatic inhibitory activity against PRMT5-MTA (AlphaScreen); format: biochemical
Outline: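 PRMT5/[…] (1 nM) was preincubated for 30 min at room temperature with 1 µM […] and 2.5 µM SAM, then exposed to compound (10-point, 3-fold from 1000 nM) for 15 min at 23 °C. Histone H4 substrate (5 nM) was added and reacted for 45 min at 23 °C. Symmetric dimethyl-R3 H4 was detected by AlphaScreen and IC50 calculated.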

HCT116 MTAP KO cells = test: Inhibitory activity against cell proliferation (CellTiter Glo, 6 days), HCT116 MTAP KO; format: cell-based; conditions: for pIC50: HCT116 MTAP KO cells, 6 days, CellTiter Glo, read-out: HCT116 MTAP KO IC50; for Selectivity HCT 116-WT/ HCT116 MTAP KO: ratio of IC50 HCT116-WT / HCT116 MTAP KO
Outline: (§1)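 Following overnight attachment of 250 cells per well in McCoy's 5A medium with 10% FBS, compounds spanning 8 concentrations (4-fold, top 10000 nM) were applied for 6 days. Growth inhibition IC50 was derived from luminescent ATP signal.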

HCT116-WT cells = test: Inhibitory activity against cell proliferation (CellTiter Glo, 6 days), HCT116-WT; format: cell-based; conditions: 144 h; for pIC50: HCT116-WT cells, 6 days, CellTiter Glo, read-out: HCT116-WT IC50
Outline: as §1

Chain of PRMT5-MTA (O14744 whole entry): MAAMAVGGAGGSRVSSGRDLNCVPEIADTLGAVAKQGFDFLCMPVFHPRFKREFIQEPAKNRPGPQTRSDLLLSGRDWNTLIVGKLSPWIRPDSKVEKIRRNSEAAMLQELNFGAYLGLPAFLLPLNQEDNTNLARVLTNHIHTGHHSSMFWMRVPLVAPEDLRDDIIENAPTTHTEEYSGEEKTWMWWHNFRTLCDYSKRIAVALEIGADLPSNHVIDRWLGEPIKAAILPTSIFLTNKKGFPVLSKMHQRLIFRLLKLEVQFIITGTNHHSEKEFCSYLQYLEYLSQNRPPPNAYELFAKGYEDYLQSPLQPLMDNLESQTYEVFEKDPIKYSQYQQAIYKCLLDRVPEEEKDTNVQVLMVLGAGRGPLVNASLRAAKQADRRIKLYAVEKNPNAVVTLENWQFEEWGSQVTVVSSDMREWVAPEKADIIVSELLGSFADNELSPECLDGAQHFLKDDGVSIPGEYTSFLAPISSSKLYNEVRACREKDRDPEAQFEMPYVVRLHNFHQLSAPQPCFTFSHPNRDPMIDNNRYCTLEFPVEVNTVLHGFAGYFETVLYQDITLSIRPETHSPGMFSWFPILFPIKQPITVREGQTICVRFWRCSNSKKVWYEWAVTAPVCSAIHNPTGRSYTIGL
Chain of PRMT5-MTA (Q9BQA1 whole entry partner): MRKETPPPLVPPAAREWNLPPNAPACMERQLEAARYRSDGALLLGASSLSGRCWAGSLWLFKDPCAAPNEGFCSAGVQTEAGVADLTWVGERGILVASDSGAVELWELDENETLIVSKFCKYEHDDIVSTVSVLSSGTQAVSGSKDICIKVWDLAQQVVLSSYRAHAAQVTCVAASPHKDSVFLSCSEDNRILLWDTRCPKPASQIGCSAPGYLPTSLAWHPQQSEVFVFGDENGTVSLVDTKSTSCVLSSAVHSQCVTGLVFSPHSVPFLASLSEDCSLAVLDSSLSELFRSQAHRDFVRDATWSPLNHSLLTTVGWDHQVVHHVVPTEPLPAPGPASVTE

Row | SMILES | pIC50 (PRMT5-MTA; read-out: IC50) | pIC50 (HCT116 MTAP KO cells; Homo sapiens, HCT-116, 144 h) | Selectivity HCT 116-WT/ HCT116 MTAP KO (HCT116 MTAP KO cells) | pIC50 (HCT116-WT cells) | pIC50 (PRMT5-MTA) | IC50 (HCT116 MTAP KO cells; Homo sapiens, HCT-116, 144 h, read-out: HCT116 MTAP KO IC50 (nM)) [nM] | IC50 (HCT116-WT cells; read-out: HCT116-WT IC50 (nM)) [nM]
1 | Cc1cc2nc(N)c3cnn(C)c3c2cc1C(=O)N1CCCN1c1ncc(-c2cccnc2)cc1F [Example 473, (4-amino-1,7-dimethyl-1H-pyrazolo[4,3-c]quinolin-8-yl)(2-(5-fluoro-[3,3'-bipyridine]-6-yl)pyrazolidin-1-yl)methanone] | 8.05 | 7.04 | 56.09 | 5.29 |  |  | 
2 | Cc1cc2nc(N)c3cnn(C)c3c2cc1C(=O)N1CCCN1c1ncc(-c2cncs2)cc1F [Example 474, (4-amino-1,7-dimethyl-1H-pyrazolo[4,3-c]quinolin-8-yl)(2-(3-fluoro-5-(thiazol-5-yl)pyridin-2-yl)pyrazolidin-1-yl)methanone] | 8.15 | 7.55 | 33.18 | 6.03 |  |  | 
3 | Cc1cc2nc(N)c3cnn(C)c3c2cc1C(=O)N1CC(C)CN1c1ncc(-c2scnc2C)cc1F (stereo not shown) [Example 475, (4-amino-1,7-dimethyl-1H-pyrazolo[4,3-c]quinolin-8-yl)(2-(3-fluoro-5-(4-methylthiazol-5-yl)pyridin-2-yl)-4-methylpyrazolidin-1-yl)methanone] | 8.29 | 7.20 | 43.81 | 5.56 |  |  | 
4 | Cc1ncc(-c2cnc(N3CC(C)CN3C(=O)c3cc4c(cc3C)nc(N)c3cnn(C)c34)c(F)c2)s1 (stereo not shown) [Example 476, (4-amino-1,7-dimethyl-1H-pyrazolo[4,3-c]quinolin-8-yl)(2-(3-fluoro-5-(2-methylthiazol-5-yl)pyridin-2-yl)-4-methylpyrazolidin-1-yl)methanone] | 8.25 | 7.55 | 33.64 | 6.03 |  |  | 
5 | Cc1ncc(-c2cnc(N3CC(C)CN3C(=O)c3cc4c(cc3C)nc(N)c3cnn(C)c34)c(F)c2)cn1 (stereo not shown) [Example 477, (4-amino-1,7-dimethyl-1H-pyrazolo[4,3-c]quinolin-8-yl)(2-(3-fluoro-5-(2-methylpyrimidin-5-yl)pyridin-2-yl)-4-methylpyrazolidin-1-yl)methanone] | 8.33 | 7.55 | 52.00 | 5.84 |  |  | 
6 | Cc1cc2nc(N)c3cnn(C)c3c2cc1C(=O)N1CCCN1c1ncc(-c2ccc(N3CCN(C)CC3)nc2)cc1F [Example 478] |  |  | 26.01 |  | 7.72 | 166 | 4320
7 | Cc1cc2nc(N)c3cnn(C)c3c2cc1C(=O)N1CC(C)CN1c1ncc(-c2cnc3c(cnn3C)c2)cc1F (stereo not shown) [Example 479, (4-amino-1,7-dimethyl-1H-pyrazolo[4,3-c]quinolin-8-yl)(2-(3-fluoro-5-(1-methyl-1H-pyrazolo[3,4-b]pyridin-5-yl)pyridin-2-yl)-4-methylpyrazolidin-1-yl)methanone] | 8.28 | 7.49 | 39.66 | 5.90 |  |  | 
8 | Cc1cc2nc(N)c3cnn(C)c3c2cc1C(=O)N1CC(C)CN1c1ncc(-c2cncs2)cc1F (stereo not shown) [Example 481, (4-amino-1,7-dimethyl-1H-pyrazolo[4,3-c]quinolin-8-yl)(2-(3-fluoro-5-(thiazol-5-yl)pyridin-2-yl)-4-methylpyrazolidin-1-yl)methanone] | 8.43 | 7.82 | 47.20 | 6.15 |  |  | 
9 | Cc1cc2nc(N)c3cnn(C)c3c2cc1C(=O)N1CC(C)CN1c1ncc(-c2cccnc2)cc1F (stereo not shown) [Example 484, (4-amino-1,7-dimethyl-1H-pyrazolo[4,3-c]quinolin-8-yl)(2-(5-fluoro-[3,3'-bipyridine]-6-yl)-4-methylpyrazolidin-1-yl)metha none] | 8.19 | 7.82 | 55.73 | 6.08 |  |  | 
10 | Cc1cc2nc(N)c3cnn(C)c3c2cc1C(=O)N1CCCN1c1ncc(-c2cscn2)cc1F [Example 486, (4-amino-1,7-dimethyl-1H-pyrazolo[4,3-c]quinolin-8-yl)(2-(3-fluoro-5-(thiazol-4-yl)pyridin-2-yl)pyrazolidin-1-yl)methanone] | 8.17 | 7.47 | 41.12 | 5.85 |  |  | 
11 | Cc1cc2nc(N)c3cnn(C)c3c2cc1C(=O)N1CC(C)CN1c1ncc(-c2nncs2)cc1F (stereo not shown) [Example 487, (4-amino-1,7-dimethyl-1H-pyrazolo[4,3-c]quinolin-8-yl)(2-(3-fluoro-5-(1,3,4-thiadiazol-2-yl)pyridin-2-yl)-4-methylpyrazolidin-1-yl)methanone] | 8.17 | 7.24 | 40.52 | 5.63 |  |  | 
12 | Cc1cc2nc(N)c3cnn(C)c3c2cc1C(=O)N1CC(C)CN1c1ncc(-c2cscn2)cc1F (stereo not shown) [Example 488, (4-amino-1,7-dimethyl-1H-pyrazolo[4,3-c]quinolin-8-yl)(2-(3-fluoro-5-(thiazol-4-yl)pyridin-2-yl)-4-methylpyrazolidin-1-yl)methanone] | 8.28 | 7.60 | 21.24 | 6.27 |  |  | 
13 | Cc1cc2nc(N)c3cnn(C)c3c2cc1C(=O)N1CC(C)CN1c1ncc(C2CC2)cc1F (stereo not shown) [Example 489] |  | 7.27 | 26.04 | 5.85 | 8.32 |  | 
14 | COC(C)(C)C#Cc1cnc(N2CC(C)CN2C(=O)c2cc3c(cc2C)nc(N)c2cnn(C)c23)c(F)c1 (stereo not shown) [Example 491, (4-amino-1,7-dimethyl-1H-pyrazolo[4,3-c]quinolin-8-yl)(2-(3-fluoro-5-(3-methoxy-3-methylbut-1-yn-1-yl)pyridin-2-yl)-4-methylpyrazolidin-1-yl)methanone] | 8.07 | 6.72 | 11.81 | 5.65 |  |  | 
15 | Cc1cc2nc(N)c3cnn(C)c3c2cc1C(=O)N1CC(C)CN1c1ncc(C#CCO)cc1F (stereo not shown) [Example 492, (4-amino-1,7-dimethyl-1H-pyrazolo[4,3-c]quinolin-8-yl)(2-(3-fluoro-5-(3-hydroxyprop-1-yn-1-yl)pyridin-2-yl)-4-methylpyrazolidin-1-yl)methanone] | 8.48 | 7.43 | 52.49 | 5.71 |  |  | 
16 | Cc1cc2nc(N)c3cnn(C)c3c2cc1C(=O)N1CC(C)CN1c1ncc(C#CC(C)(C)O)cc1F (stereo not shown) [Example 493, (4-amino-1,7-dimethyl-1H-pyrazolo[4,3-c]quinolin-8-yl)(2-(3-fluoro-5-(3-hydroxy-3-methyl-but-1-yn-1-yl)pyridin-2-yl)-4-methylpyrazolidin-1-yl)methanone] | 8.29 | 7.17 | 27.94 | 5.72 |  |  | 
17 | C#Cc1cnc(N2CC(C)CN2C(=O)c2cc3c(cc2C)nc(N)c2cnn(C)c23)c(F)c1 (stereo not shown) [Example 494, (4-amino-1,7-dimethyl-1H-pyrazolo[4,3-c]quinolin-8-yl)(2-(5-ethynyl-3-fluoropyridin-2-yl)-4-methylpyrazolidin-1-yl)methanone] | 8.34 | 7.54 | 34.62 | 6.00 |  |  | 
18 | Cc1cc2nc(N)c3cnn(C)c3c2cc1C(=O)N1CC(C)CN1c1ncc(C#CCF)cc1F (stereo not shown) [Example 495, (4-amino-1,7-dimethyl-1H-pyrazolo[4,3-c]quinolin-8-yl)(2-(3-fluoro-5-(3-fluoroprop-1-yn-1-yl)pyridin-2-yl)-4-methylpyrazolidin-1-yl)methanone] | 7.82 | 7.16 | 24.00 | 5.78 |  |  | 
19 | Cc1cc2nc(N)c3ccncc3c2cc1C(=O)N1CC(C)CN1c1ncccc1F (stereo not shown) [Example 502, (5-amino-8-methylbenzo[C] [2,6]naphthyridin-9-yl)(2-(3-fluoropyridin-2-yl)-4-methylpyrazolidin-1-yl)methanone] | 8.28 | 6.85 | 10.79 | 5.82 |  |  | 
20 | [2H]C([2H])([2H])n1ncc2c(N)nc3cc(C)c(C(=O)N4CC(C)CN4c4ncccc4F)cc3c21 (stereo not shown) [Example 507, (4-amino-7-methyl-1-(methyl-D3)-1H-pyrazolo[4,3-c]quinolin-8-yl)(2-(3-fluoropyridin-2-yl)-4-methylpyrazolidin-1-yl)methanone] | 7.99 | 7.42 | 44.34 | 5.77 |  |  | 
21 | Cc1cc2nc(N)c3c(C)nn(C)c3c2cc1C(=O)N1CC(C)CN1c1ncccc1F (stereo not shown) [Example 509, (4-amino-1,3,7-trimethyl-1H-pyrazolo[4,3-c]quinolin-8-yl)(2-(3-fluoropyridin-2-yl)-4-methylpyrazolidin-1-yl) methanone] | 8.37 | 6.35 |  | < 5.00 |  |  | 
22 | Cc1cc2nc(N)c3c(c2cc1C(=O)N1CC(C)CN1c1ncccc1F)COC3C (stereo not shown) [Example 510] |  | 6.65 | 33.55 | 5.13 | 8.32 |  | 
23 | Cc1cc2nc(N)c3c(c2cc1C(=O)N1CC(C)CN1c1ncccc1F)COC3 (stereo not shown) [Example 512, (4-amino-7-methyl-1,3-dihydrofuro[3,4-c]quinolin-8-yl)(2-(3-fluoropyridin-2-yl)-4-methylpyrazolidin-1-yl)methanone] | 8.30 | 6.59 | 22.53 | 5.23 |  |  | 
